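Method: 48-hour compound exposure of cells in 96-well plates, five concentrations, linear interpolation of endpoints. TGI is the concentration that stops growth completely.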
tested on: NCI-H522 lung; assay: growth of human tumour cells (NCI), 48 h

SMILES | TGI [µM]
CC(=O)Oc1c(C)cc2c(c1C)C(C)CN2C(C)=O (centres undefined) | > 100
CC1(C)COC(c2ccc(C(=O)c3ccc(Cl)cc3)cc2)=N1 | > 100
CCOC1CCC2C(CCC(/C=C/c3ccc(O)c4ncccc34)N2C)C1 (centres undefined) | 5.89
CCOC(=O)C(=CNC(=S)c1ccncc1)C(=O)OCC | > 100

tested on: HT29 colon; assay: growth of human tumour cells (NCI), 48 h

SMILES | TGI [µM]
CC(=O)Oc1c(C)cc2c(c1C)C(C)CN2C(C)=O (centres undefined) | > 100
CC1(C)COC(c2ccc(C(=O)c3ccc(Cl)cc3)cc2)=N1 | > 100
CCOC1CCC2C(CCC(/C=C/c3ccc(O)c4ncccc34)N2C)C1 (centres undefined) | > 100
C=CCC(NCc1ccccc1)[C@H](OCc1ccccc1)[C@@H]1COC(C)(C)O1 (some centres undefined) | 27.1

tested on: NCI-H23 lung; assay: growth of human tumour cells (NCI), 48 h

SMILES | TGI [µM]
CC(=O)Oc1c(C)cc2c(c1C)C(C)CN2C(C)=O (centres undefined) | > 100
CC1(C)COC(c2ccc(C(=O)c3ccc(Cl)cc3)cc2)=N1 | > 100
CCOC1CCC2C(CCC(/C=C/c3ccc(O)c4ncccc34)N2C)C1 (centres undefined) | 66
CCOC(=O)C(=CNC(=S)c1ccncc1)C(=O)OCC | > 100
C=CCC(NCc1ccccc1)[C@H](OCc1ccccc1)[C@@H]1COC(C)(C)O1 (some centres undefined) | > 100

tested on: OVCAR-8 ovarian; assay: growth of human tumour cells (NCI), 48 h

SMILES | TGI [µM]
CC(=O)Oc1c(C)cc2c(c1C)C(C)CN2C(C)=O (centres undefined) | > 100
CC1(C)COC(c2ccc(C(=O)c3ccc(Cl)cc3)cc2)=N1 | > 100
CCOC1CCC2C(CCC(/C=C/c3ccc(O)c4ncccc34)N2C)C1 (centres undefined) | > 100
C=CCC(NCc1ccccc1)[C@H](OCc1ccccc1)[C@@H]1COC(C)(C)O1 (some centres undefined) | > 100

tested on: SW-620 colon; assay: growth of human tumour cells (NCI), 48 h

SMILES | TGI [µM]
CC(=O)Oc1c(C)cc2c(c1C)C(C)CN2C(C)=O (centres undefined) | > 100
CC1(C)COC(c2ccc(C(=O)c3ccc(Cl)cc3)cc2)=N1 | > 100
CCOC1CCC2C(CCC(/C=C/c3ccc(O)c4ncccc34)N2C)C1 (centres undefined) | > 100
CCOC(=O)C(=CNC(=S)c1ccncc1)C(=O)OCC | > 100
C=CCC(NCc1ccccc1)[C@H](OCc1ccccc1)[C@@H]1COC(C)(C)O1 (some centres undefined) | > 100

tested on: SK-MEL-5 melanoma; assay: growth of human tumour cells (NCI), 48 h

SMILES | TGI [µM]
CC(=O)Oc1c(C)cc2c(c1C)C(C)CN2C(C)=O (centres undefined) | > 100
CC1(C)COC(c2ccc(C(=O)c3ccc(Cl)cc3)cc2)=N1 | 30.5
CCOC1CCC2C(CCC(/C=C/c3ccc(O)c4ncccc34)N2C)C1 (centres undefined) | > 100
CCOC(=O)C(=CNC(=S)c1ccncc1)C(=O)OCC | > 100
C=CCC(NCc1ccccc1)[C@H](OCc1ccccc1)[C@@H]1COC(C)(C)O1 (some centres undefined) | 55.2

tested on: OVCAR-4 ovarian; assay: growth of human tumour cells (NCI), 48 h

SMILES | TGI [µM]
CC(=O)Oc1c(C)cc2c(c1C)C(C)CN2C(C)=O (centres undefined) | > 100
CCOC(=O)C(=CNC(=S)c1ccncc1)C(=O)OCC | > 100
C=CCC(NCc1ccccc1)[C@H](OCc1ccccc1)[C@@H]1COC(C)(C)O1 (some centres undefined) | > 100

tested on: ACHN renal; assay: growth of human tumour cells (NCI), 48 h

SMILES | TGI [µM]
CC(=O)Oc1c(C)cc2c(c1C)C(C)CN2C(C)=O (centres undefined) | > 100
CC1(C)COC(c2ccc(C(=O)c3ccc(Cl)cc3)cc2)=N1 | > 100
CCOC1CCC2C(CCC(/C=C/c3ccc(O)c4ncccc34)N2C)C1 (centres undefined) | > 100
CCOC(=O)C(=CNC(=S)c1ccncc1)C(=O)OCC | > 100
C=CCC(NCc1ccccc1)[C@H](OCc1ccccc1)[C@@H]1COC(C)(C)O1 (some centres undefined) | > 100

tested on: SNB-75 CNS; assay: growth of human tumour cells (NCI), 48 h

SMILES | TGI [µM]
CC(=O)Oc1c(C)cc2c(c1C)C(C)CN2C(C)=O (centres undefined) | > 100
CC1(C)COC(c2ccc(C(=O)c3ccc(Cl)cc3)cc2)=N1 | > 100
CCOC(=O)C(=CNC(=S)c1ccncc1)C(=O)OCC | > 100
C=CCC(NCc1ccccc1)[C@H](OCc1ccccc1)[C@@H]1COC(C)(C)O1 (some centres undefined) | > 100

tested on: SK-MEL-28 melanoma; assay: growth of human tumour cells (NCI), 48 h

SMILES | TGI [µM]
CC(=O)Oc1c(C)cc2c(c1C)C(C)CN2C(C)=O (centres undefined) | > 100
CC1(C)COC(c2ccc(C(=O)c3ccc(Cl)cc3)cc2)=N1 | > 100
CCOC1CCC2C(CCC(/C=C/c3ccc(O)c4ncccc34)N2C)C1 (centres undefined) | > 100
CCOC(=O)C(=CNC(=S)c1ccncc1)C(=O)OCC | > 100
C=CCC(NCc1ccccc1)[C@H](OCc1ccccc1)[C@@H]1COC(C)(C)O1 (some centres undefined) | > 100

tested on: HOP-92 NSCLC; assay: growth of human tumour cells (NCI), 48 h

SMILES | TGI [µM]
CC(=O)Oc1c(C)cc2c(c1C)C(C)CN2C(C)=O (centres undefined) | > 100
CC1(C)COC(c2ccc(C(=O)c3ccc(Cl)cc3)cc2)=N1 | > 100
CCOC1CCC2C(CCC(/C=C/c3ccc(O)c4ncccc34)N2C)C1 (centres undefined) | 59.7
CCOC(=O)C(=CNC(=S)c1ccncc1)C(=O)OCC | > 100
C=CCC(NCc1ccccc1)[C@H](OCc1ccccc1)[C@@H]1COC(C)(C)O1 (some centres undefined) | 49

tested on: NCI-H226 lung; assay: growth of human tumour cells (NCI), 48 h

SMILES | TGI [µM]
CC(=O)Oc1c(C)cc2c(c1C)C(C)CN2C(C)=O (centres undefined) | > 100
CC1(C)COC(c2ccc(C(=O)c3ccc(Cl)cc3)cc2)=N1 | > 100
CCOC1CCC2C(CCC(/C=C/c3ccc(O)c4ncccc34)N2C)C1 (centres undefined) | > 100
C=CCC(NCc1ccccc1)[C@H](OCc1ccccc1)[C@@H]1COC(C)(C)O1 (some centres undefined) | 34.1

tested on: UACC-62 melanoma; assay: growth of human tumour cells (NCI), 48 h

SMILES | TGI [µM]
CC(=O)Oc1c(C)cc2c(c1C)C(C)CN2C(C)=O (centres undefined) | > 100
CC1(C)COC(c2ccc(C(=O)c3ccc(Cl)cc3)cc2)=N1 | > 100
CCOC1CCC2C(CCC(/C=C/c3ccc(O)c4ncccc34)N2C)C1 (centres undefined) | > 100
CCOC(=O)C(=CNC(=S)c1ccncc1)C(=O)OCC | > 100
C=CCC(NCc1ccccc1)[C@H](OCc1ccccc1)[C@@H]1COC(C)(C)O1 (some centres undefined) | > 100

tested on: RXF 393 renal; assay: growth of human tumour cells (NCI), 48 h

SMILES | TGI [µM]
CC(=O)Oc1c(C)cc2c(c1C)C(C)CN2C(C)=O (centres undefined) | > 100
CC1(C)COC(c2ccc(C(=O)c3ccc(Cl)cc3)cc2)=N1 | > 100
CCOC(=O)C(=CNC(=S)c1ccncc1)C(=O)OCC | > 100

tested on: A549 NSCLC; assay: growth of human tumour cells (NCI), 48 h

SMILES | TGI [µM]
CC(=O)Oc1c(C)cc2c(c1C)C(C)CN2C(C)=O (centres undefined) | > 100
CC1(C)COC(c2ccc(C(=O)c3ccc(Cl)cc3)cc2)=N1 | > 100
CCOC1CCC2C(CCC(/C=C/c3ccc(O)c4ncccc34)N2C)C1 (centres undefined) | > 100
